# Experimental data reported in patent US20230146675A1, “PYRIMIDO[5,4-d]PYRIMIDINE DERIVATIVES AS ENT INHIBITORS FOR THE TREATMENT OF CANCERS, AND COMBINATION THEREOF WITH ADENOSINE RECEPTOR ANTAGONISTS” (ITEOS BELGIUM SA, priority 2020, published 2023).
# Molecular target: T1, human ENT1 (Homo sapiens, UniProt Q99808)
# T1 sequence (Q99808 1-456): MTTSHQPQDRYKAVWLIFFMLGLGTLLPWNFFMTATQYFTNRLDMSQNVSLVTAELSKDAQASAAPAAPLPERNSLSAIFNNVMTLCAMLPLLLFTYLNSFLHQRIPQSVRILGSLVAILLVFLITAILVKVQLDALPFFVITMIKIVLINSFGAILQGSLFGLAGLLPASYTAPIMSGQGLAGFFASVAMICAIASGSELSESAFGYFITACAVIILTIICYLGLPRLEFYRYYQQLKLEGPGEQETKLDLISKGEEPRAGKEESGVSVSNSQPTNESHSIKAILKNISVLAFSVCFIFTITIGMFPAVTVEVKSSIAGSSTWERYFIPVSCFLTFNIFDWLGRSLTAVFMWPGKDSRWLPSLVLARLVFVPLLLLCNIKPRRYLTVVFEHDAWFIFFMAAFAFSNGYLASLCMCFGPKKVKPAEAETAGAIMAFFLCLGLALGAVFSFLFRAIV
# Test: ENT1 binding assay (competition with Sahenta-DY647 on JAR cells)
# Set-up: JAR cells expressing ENT1 were bought from ATCC; host or cells: JAR cells
# Conditions: binned IC50
# Method in brief: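 JAR cells were incubated with test compounds and the fluorescent ligand Sahenta-DY647 in competition. Plates were washed twice by centrifugation (4 min, 400 rcf, 4 °C). Binding potency was derived from the final fluorescence.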
row,SMILES,IC50
1,"COCCN(CCOC)c1nc(N2CCN(c3ncn(C)n3)CC2)c2nc(N(CCOC)CCOC)nc(N3CCN(c4ncn(C)n4)CC3)c2n1 [Compound 131, N2,N2,N6,N6-tetrakis(2-methoxyethyl)-4,8-bis(4-(1-methyl-1H-1,2,4-triazol-3-yl)piperazin-1-yl)pyrimido[5,4-d]pyrimidine-2,6-diamine]",0.1 to 0.5 µM
2,"COCCN(CCOC)c1nc(N2CCC(OC)CC2)c2nc(N(CCOC)CCOC)nc(N3CCC(NC(C)=O)CC3)c2n1 [Compound 88, N-(1-(2,6-bis(bis(2-methoxyethyl)amino)-8-(4-methoxypiperidin-1-yl)pyrimido[5,4-d]pyrimidin-4-yl)piperidin-4-yl)acetamide]",0.5 to 1 µM
3,"COCCN(CCOC)c1nc(N2CCN(C)C(=O)C2)c2nc(N(CCOC)CCOC)nc(N(C)C)c2n1 [Compound 320, 4-(2,6-bis(bis(2-methoxyethyl)amino)-8-(dimethylamino)pyrimido[5,4-d]pyrimidin-4-yl)-1-methylpiperazin-2-one]",0.5 to 1 µM
4,"COCCN(CCOC)c1nc(N2CCC(OC)CC2)c2nc(N(CCOC)CCOC)nc(NCCCCCC#N)c2n1 [Compound 182, 6-((2,6-bis(bis(2-methoxyethyl)amino)-8-(4-methoxypiperidin-1-yl)pyrimido[5,4-d]pyrimidin-4-yl)amino)hexanenitrile]",0.5 to 1 µM
5,"COCCN(CCOC)c1nc(N(C)C2CCCC2)c2nc(N(CCOC)CCOC)nc(N3CCC(OC)CC3)c2n1 [Compound 166, N4-cyclopentyl-N2,N2,N6,N6-tetrakis(2-methoxyethyl)-8-(4-methoxypiperidin-1-yl)-N4-methylpyrimido[5,4-d]pyrimidine-2,4,6-triamine]",0.1 to 0.5 µM
6,"COCCN(CCOC)c1nc(N2CCC(OC)CC2)c2nc(N(CCOC)CCOC)nc(NCc3cnccn3)c2n1 [Compound 84, N2,N2,N6,N6-tetrakis(2-methoxyethyl)-8-(4-methoxypiperidin-1-yl)-N4-(pyrazin-2-ylmethyl)pyrimido[5,4-d]pyrimidine-2,4,6-triamine]",0.5 to 1 µM
7,"CCN1CCN(c2nc(N(CCOC)CCOC)nc3c(N4CCC(OC)CC4)nc(N(CCOC)CCOC)nc23)CC1=O [Compound 198, 4-(2,6-bis(bis(2-methoxyethyl)amino)-8-(4-methoxypiperidin-1-yl)pyrimido[5,4-d]pyrimidin-4-yl)-1-ethylpiperazin-2-one]",0.1 to 0.5 µM
8,"COCCN(CCOC)c1nc(N2CCN(C)C(=O)C2)c2nc(N(CCOC)CCOC)nc(NCc3cccc(C(N)=O)c3)c2n1 [Compound 203, 3-(((2,6-bis(bis(2-methoxyethyl)amino)-8-(4-methyl-3-oxopiperazin-1-yl)pyrimido[5,4-d]pyrimidin-4-yl)amino)methyl)benzamide]",0.1 to 0.5 µM
9,"COCCN(CCOC)c1nc(N2CCN(c3ncn(C)n3)CC2)c2nc(N(CCOC)CCOC)nc(NCc3cccc(S(N)(=O)=O)c3)c2n1 [Compound 228, 3-(((2,6-bis(bis(2-methoxyethyl)amino)-8-(4-(1-methyl-1H-1,2,4-triazol-3-yl)piperazin-1-yl)pyrimido[5,4-d]pyrimidin-4-yl)amino)methyl)benzenesulfonamide]",0.1 to 0.5 µM
10,"COCCN(CCOC)c1nc(N2CCC(OC)CC2)c2nc(N(CCOC)CCOC)nc(NCc3cccc(-n4cccn4)c3)c2n1 [Compound 146, N4-(3-(1H-pyrazol-1-yl)benzyl)-N2,N2,N6,N6-tetrakis(2-methoxyethyl)-8-(4-methoxypiperidin-1-yl)pyrimido[5,4-d]pyrimidine-2,4,6-triamine]",0.1 to 0.5 µM
11,"COC(C)CN(CC(C)OC)c1nc(N2CCC(OC)CC2)c2nc(N(CCO)CCO)nc(N3CCN(C)C(=O)C3)c2n1 (centres unmarked) [Compound 328, 4-(2-(bis(2-hydroxyethyl)amino)-6-(bis(2-methoxypropyl)amino)-8-(4-methoxypiperidin-1-yl)pyrimido[5,4-d]pyrimidin-4-yl)-1-methylpiperazin-2-one]",0.1 to 0.5 µM
12,"COCCN(CCOC)c1nc(N2CCC(OC)CC2)c2nc(N(CCOC)CCOC)nc(OCc3cccc(-c4noc(C)n4)c3)c2n1 [Compound 159, N2,N2,N6,N6-tetrakis(2-methoxyethyl)-4-(4-methoxypiperidin-1-yl)-8-((3-(5-methyl-1,2,4-oxadiazol-3-yl)benzyl)oxy)pyrimido[5,4-d]pyrimidine-2,6-diamine]",0.1 to 0.5 µM
13,"COCCN(CCOC)c1nc(N2CCc3cn[nH]c3C2)c2nc(N(CCOC)CCOC)nc(N3CCN(C)C(=O)C3)c2n1 [Compound 259, 4-(2,6-bis(bis(2-methoxyethyl)amino)-8-(1,4,5,7-tetrahydro-6H-pyrazolo[3,4-c]pyridin-6-yl)pyrimido[5,4-d]pyrimidin-4-yl)-1-methylpiperazin-2-one]",< 0.1 µM
14,"COCCN(CCOC)c1nc(N2CCN(C)C(=O)C2)c2nc(N(CCOC)CCOC)nc(N3CCCCC3)c2n1 [Compound 319, 4-(2,6-bis(bis(2-methoxyethyl)amino)-8-(piperidin-1-yl)pyrimido[5,4-d]pyrimidin-4-yl)-1-methylpiperazin-2-one]",0.1 to 0.5 µM
15,"COCCN(CCOC)c1nc(N2CCc3cc(OC)c(OC)cc3C2)c2nc(N(CCOC)CCOC)nc(N3CCc4cc(OC)c(OC)cc4C3)c2n1 [Compound 4, 4,8-bis(6,7-dimethoxy-3,4-dihydroisoquinolin-2(1H)-yl)-N2,N2,N6,N6-tetrakis(2-methoxyethyl)pyrimido[5,4-d]pyrimidine-2,6-diamine]",0.1 to 0.5 µM
16,"COCCN(CCOC)c1nc(N2CCN(C)C(=O)C2)c2nc(N(CCOC)CCOC)nc(NCc3ccc(F)c(C#N)c3)c2n1 [Compound 211, 5-(((2,6-bis(bis(2-methoxyethyl)amino)-8-(4-methyl-3-oxopiperazin-1-yl)pyrimido[5,4-d]pyrimidin-4-yl)amino)methyl)-2-fluorobenzonitrile]",< 0.1 µM
17,"COCCN(CCOC)c1nc(N2CCc3c(ncn3C)C2)c2nc(N(CCOC)CCOC)nc(N3CCN(C)C(=O)C3)c2n1 [Compound 253, 4-(2,6-bis(bis(2-methoxyethyl)amino)-8-(1-methyl-1,4,6,7-tetrahydro-5H-imidazo[4,5-c]pyridin-5-yl)pyrimido[5,4-d]pyrimidin-4-yl)-1-methylpiperazin-2-one]",0.1 to 0.5 µM
18,"COCCN(CCOC)c1nc(N2CC(O)(C(F)(F)F)C2)c2nc(N(CCOC)CCOC)nc(N3CCS(=O)(=O)CC3)c2n1 [Compound 192, 4-(2,6-bis(bis(2-methoxyethyl)amino)-8-(3-hydroxy-3-(trifluoromethyl)azetidin-1-yl)pyrimido[5,4-d]pyrimidin-4-yl)thiomorpholine 1,1-dioxide]",0.1 to 0.5 µM
19,"COCCN(CCOC)c1nc(N2CCN(c3ncccc3N)CC2)c2nc(N(CCOC)CCOC)nc(N3CCC(OC)CC3)c2n1 [Compound 121, 4-(4-(3-aminopyridin-2-yl)piperazin-1-yl)-N2,N2,N6,N6-tetrakis(2-methoxyethyl)-8-(4-methoxypiperidin-1-yl)pyrimido[5,4-d]pyrimidine-2,6-diamine]",0.5 to 1 µM
20,"COCCN(CCOC)c1nc(N2CCN(c3ncn(C)n3)CC2)c2nc(N(CCOC)CCOC)nc(N(C)Cc3ccc(F)c(C#N)c3)c2n1 [Compound 245, 5-(((2,6-bis(bis(2-methoxyethyl)amino)-8-(4-(1-methyl-1H-1,2,4-triazol-3-yl)piperazin-1-yl)pyrimido[5,4-d]pyrimidin-4-yl)(methyl)amino)methyl)-2-fluorobenzonitrile]",0.5 to 1 µM
21,"COCCCN(CCCOC)c1nc(N2CCC(OC)CC2)c2nc(N(CCCO)CCCO)nc(N3CCC(OC)CC3)c2n1 [Compound 330, 3,3′-((6-(bis(3-methoxypropyl)amino)-4,8-bis(4-methoxypiperidin-1-yl)pyrimido[5,4-d]pyrimidin-2-yl)azanediyl)bis(propan-1-ol)]",0.1 to 0.5 µM
22,"COCCN(CCOC)c1nc(N2CCC3(CC2)NC(=O)NC3=O)c2nc(N(CCOC)CCOC)nc(N3CCC(OC)CC3)c2n1 [Compound 117, 8-(2,6-bis(bis(2-methoxyethyl)amino)-8-(4-methoxypiperidin-1-yl)pyrimido[5,4-d]pyrimidin-4-yl)-1,3,8-triazaspiro[4.5]decane-2,4-dione]",0.5 to 1 µM
23,"COCCN(CCOC)c1nc(N2CCC(OC)CC2)c2nc(N(CCOC)CCOC)nc(NCC3CCOCC3)c2n1 [Compound 46, N2,N2,N6,N6-tetrakis(2-methoxyethyl)-8-(4-methoxypiperidin-1-yl)-N4-((tetrahydro-2H-pyran-4-yl)methyl)pyrimido[5,4-d]pyrimidine-2,4,6-triamine]",0.1 to 0.5 µM
24,"COCCN(CCOC)c1nc(N2CCN(C(C)=O)CC2)c2nc(N(CCOC)CCOC)nc(N3CCC(OC)CC3)c2n1 [Compound 74, 1-(4-(2,6-bis(bis(2-methoxyethyl)amino)-8-(4-methoxypiperidin-1-yl)pyrimido[5,4-d]pyrimidin-4-yl)piperazin-1-yl)ethanone]",0.1 to 0.5 µM
25,"COCCN(CCOC)c1nc(N2CCN(C)C(=O)C2)c2nc(N(CCOC)CCOC)nc(N3CCN(C)C(=O)C3)c2n1 [Compound 187, 4,4′-(2,6-bis(bis(2-methoxyethyl)amino)pyrimido[5,4-d]pyrimidine-4,8-diyl)bis(1-methylpiperazin-2-one)]",0.1 to 0.5 µM
26,"COCCN(CCOC)c1nc(N2CCN(c3ncn(C)n3)CC2)c2nc(N(CCOC)CCOC)nc(N3CCC(OC)CC3)c2n1 [Compound 196, N2,N2,N6,N6-tetrakis(2-methoxyethyl)-4-(4-methoxypiperidin-1-yl)-8-(4-(1-methyl-1H-1,2,4-triazol-3-yl)piperazin-1-yl)pyrimido[5,4-d]pyrimidine-2,6-diamine]",0.1 to 0.5 µM
